Patent US10889546B2, “Alkynyl pyridine prolyl hydroxylase inhibitor, and preparation method and medical use thereof” (Jiangsu Hengrui Medicine Co., Ltd., priority 2015, dated 2021)

Assays:
[1] = test system: EPO; experiment: EPO expression at the cellular level (EPO kit); assay type: cell-based; conditions: Hep3B human hepatoma cell, 24 h after administration
Experimental: (§1) The test of the activity of some compounds of the present invention on VEGF at the cellular level and EPO at the cellular level is shown as follows. The method is in accordance with Bioorganic & Medicinal Chemistry Letters 23 (2013) 5953-5957, and the test was carried out by using VEGF and EPO kit respectively 24 h after administration.
(§2) Hep3B Cell: Human Hepatoma Cell

[2] = test system: VEGF; experiment: VEGF expression at the cellular level (VEGF kit); assay type: cell-based; conditions: Hep3B human hepatoma cell, 24 h after administration
Experimental: as §1, §2
Also: test concentration or dose not given here.

SMILES	Whether it can increase the expression of EPO in cells [1]	Whether it can increase the expression of VEGF in cells [2]
COC(=O)CNC(=O)c1ncc(C#Cc2ccccc2)cc1O [Example 6, Methyl 2-(3-hydroxy-5-phenylethynyl)picolinamido acetate]	Yes	Yes
Cc1ccc(C#Cc2cc(O)c(C(=O)NCC(=O)O)nc2C)cc1 [Example 7, 2-(3-Hydroxy-5-p-methylphenylethynyl-6-methyl)picolinamido acetic acid]	Yes	–
COc1ccc(C#Cc2cc(O)c(C(=O)NCC(=O)O)nc2Cl)cc1 [Example 8, 2-(3-Hydroxy-5-p-methoxyphenylethynyl-6-chloro)picolinamido acetic acid]	Yes	Yes
CC(NC(=O)c1ncc(C#Cc2ccc(C3CC3)cc2)cc1O)C(=O)O (stereo not drawn) [Example 9, 2-(3-Hydroxy-5-p-cyclopropylphenylethynylpyridine)carboxamido propionic acid]	Yes	Yes
COc1ccc(C#Cc2cnc(C(=O)NCC(=O)O)c(O)c2)cc1 [Example 16, 2-(3-Hydroxy-5-p-methoxyphenylethynyl)picolinamido acetic acid]	Yes	–
COc1cccc(C#Cc2cnc(C(=O)NCC(=O)O)c(O)c2)c1 [Example 17, 2-(3-Hydroxy-5-m-methoxyphenylethynyl)picolinamido acetic acid]	Yes	Yes
N#Cc1ccc(C#Cc2cnc(C(=O)NCC(=O)O)c(O)c2)cc1 [Example 19, 2-(3-Hydroxy-5-p-cyanophenylethynyl)picolinamido acetic acid]	Yes	Yes
N#Cc1ccccc1C#Cc1cnc(C(=O)NCC(=O)O)c(O)c1 [Example 20, 2-(3-Hydroxy-5-o-cyanophenylethynyl)picolinamido acetic acid]	Yes	Yes
CC(=O)Nc1ccc(C#Cc2cnc(C(=O)NCC(=O)O)c(O)c2)cc1 [Example 22, 2-(3-Hydroxy-5-p-acetamidophenylethynyl)picolinamido acetic acid]	Yes	Yes
CN(C)C(=O)c1ccc(C#Cc2cnc(C(=O)NCC(N)=O)c(O)c2)cc1 [Example 23, 2-(3-Hydroxy-5-p-dimethylcarbamoylphenylethynyl)picolinamidoacetamide]	Yes	Yes
CCCCC(=O)Nc1ccc(C#Cc2cnc(C(=O)NCC(=O)OCC3CC3)c(O)c2)cc1 [Example 24, Cyclopropylmethyl 2-(3-hydroxy-5-p-pentanaminophenylethynyl)picolinamidoacetate]	Yes	–
CCCCNC(=O)c1ccc(C#Cc2cnc(C(=O)NCC(=O)OC(C)C)c(O)c2)cc1 [Example 25, Isopropyl 2-(3-hydroxy-5-p-butylcarbamoylphenylethynyl)picolinamidoacetate]	–	Yes
NC(=O)CNC(=O)c1ncc(C#CCOc2ccc(Cl)cc2)cc1O [Example 28]	Yes	Yes
CCc1ccc(OCC#Cc2cnc(C(=O)NCC(=O)OC)c(O)c2)cc1 [Example 29, Methyl 2-(3-hydroxy-5-(3-p-ethylphenoxypropyn-1-yl))picolinamido acetate]	Yes	Yes
CC(C)OC(=O)CNC(=O)c1ncc(C#CCOc2ccc(C#N)cc2)cc1O [Example 30, Isopropyl 2-(3-hydroxy-5-(3-p-cyanophenoxypropyn-1-yl))picolinamido acetate]	Yes	Yes
COc1ccc(OCC#Cc2cnc(C(=O)NCC(=O)O)c(O)c2)cc1 [Example 39, 2-(3-Hydroxy-5-(3-p-methoxyphenoxypropyn-1-yl))picolinamido acetic acid]	Yes	Yes
CC(C)(C)Oc1cccc(OCC#Cc2cnc(C(=O)NCC(=O)O)c(O)c2)c1 [Example 40, 2-(3-Hydroxy-5-(3-m-tert-butoxyphenoxypropyn-1-yl))picolinamido acetic acid]	Yes	Yes
O=C(O)CNC(=O)c1ncc(C#CCOc2cccc(OC3CC3)c2)cc1O [Example 41, 2-(3-Hydroxy-5-(3-m-cyclopropoxyphenoxypropyn-1-yl))picolinamido acetic acid]	Yes	Yes
O=C(O)CNC(=O)c1ncc(C#CCOc2cccc(Br)c2)cc1O [Example 48, 2-(3-Hydroxy-5-(3-m-bromophenoxypropyn-1-yl))picolinamido acetic acid]	Yes	Yes
N#Cc1cccc(OCC#Cc2cnc(C(=O)NCC(=O)O)c(O)c2)c1 [Example 49, 2-(3-Hydroxy-5-(3-m-cyanophenoxypropyn-1-yl))picolinamido acetic acid]	Yes	Yes
NC(=O)c1ccc(OCC#Cc2cnc(C(=O)NCC(=O)O)c(O)c2)cc1 [Example 52, 2-(3-Hydroxy-5-(3-p-carbamoylphenoxypropyn-1-yl))picolinamido acetic acid]	Yes	–
O=C(O)CNC(=O)c1ncc(C#CCOc2ccc(C(=O)N3CCCC3)cc2)cc1O [Example 54, 2-(3-Hydroxy-5-(3-(4-(pyrrolidin-1-carbonyl)phenoxy)propyn-1-yl))picolinamido acetic acid]	Yes	Yes
O=C(O)CNC(=O)c1nc(Cl)c(C#CCOc2ccc(C(=O)N3CC3)cc2)cc1O [Example 55]	Yes	Yes
O=C(O)CNC(=O)c1ncc(C#CCOc2ccc3ccccc3c2)cc1O [Example 58, 2-(3-Hydroxy-5-(3-(naphthalen-2-oxy)propyn-1-yl))picolinamido acetic acid]	Yes	Yes
O=C(O)CNC(=O)c1ncc(C#CCOc2cccc(Cl)c2Cl)cc1O [Example 61, 2-(3-Hydroxy-5-(3-(2,3-dichlorophenyl)oxypropyn-1-yl))picolinamido acetic acid]	Yes	Yes
O=C(O)CNC(=O)c1ncc(C#CCOc2cc(Cl)cc(Cl)c2)cc1O [Example 62, 2-(3-Hydroxy-5-(3-(3,5-dichlorophenyl)oxypropyn-1-yl))picolinamido acetic acid]	Yes	Yes
Cc1nc(C(=O)NCC(=O)O)c(O)cc1C#CCOc1ccc(C2CC2)cc1 [Example 63, 2-(3-Hydroxy-5-(3-p-cyclopropylphenoxypropyn-1-yl)-6-methyl)picolinamido acetic acid]	Yes	–
